Source: ChEMBL document CHEMBL1201862, “PubChem BioAssay data set” (2004)
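Protocol summary: plate cells (96-well), add compound at 5 concentrations, incubate 48 h, interpolate endpoints linearly. Here, GI50 denotes the concentration required for 50% inhibition of growth.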 Active and inactive are the calls of the source. Rule as the data show it: active = GI50 up to about 1.1 µM and inactive = higher.

Legend:
Assay in all cases: NCI tumour cell line growth inhibition, 48 h
BT-549 = test system: BT-549
MCF7 = test system: MCF7
DLD-1 = test system: DLD-1
DMS-114 = test system: DMS-114
DMS-273 = test system: DMS-273
M19-MEL = test system: M19-MEL
XF498 = test system: XF498
KM-20L2 = test system: KM-20L2

| SMILES | GI50 (BT-549) | GI50 (MCF7) | other results |
| --- | --- | --- | --- |
| O=C(Nc1ccccc1)OCCN=c1c2ccccc2ccc2ccccc12 | 13 µM (inactive) | > 10 µM (inactive) | – |
| OC1CC2CCCN(CCc3c1[nH]c1ccccc31)C2 (stereo not given) | 38.3 µM (inactive) | > 100 µM (inactive) | – |
| Nc1ccc(C(=O)O)cc1 [AMINOBENZOIC ACID] | – | > 100 µM (inactive) | – |
| O=S(=O)(C1=CC(S(=O)(=O)c2ccccc2)COC1)c1ccccc1 (stereo not given) | – | – | GI50 (DLD-1): > 100 µM (inactive); GI50 (DMS-114): > 100 µM (inactive); GI50 (DMS-273): > 100 µM (inactive); GI50 (M19-MEL): > 100 µM (inactive); GI50 (XF498): > 100 µM (inactive) |
| O=C1c2cccc3cc([N+](=O)[O-])cc(c23)C(=O)N1O | 28.6 µM (inactive) | 24.8 µM (inactive) | – |
| O=C(Nc1ccc2ncccc2c1)c1cc2c(cc1Cl)Sc1nccn1S2(=O)=O | 15.6 µM (inactive) | 6.12 µM (inactive) | – |
| CCSc1nc2sc(C)c(C)c2c(=O)n1-c1ccc(C(=O)O)cc1 | – | – | GI50 (DLD-1): 43.2 µM (inactive); GI50 (DMS-114): 76.9 µM (inactive); GI50 (KM-20L2): > 100 µM (inactive); GI50 (M19-MEL): 60 µM (inactive); GI50 (XF498): 75.7 µM (inactive) |
| COc1ccc(OC)c(-c2cc(=O)c3c(OC)c(OC)c(OC)c(OC)c3o2)c1 | 33.2 µM (inactive) | 14.5 µM (inactive) | – |
| Cc1cc(C)c(C(=O)O)c(N)c1O | – | – | GI50 (DLD-1): > 100 µM (inactive); GI50 (DMS-114): > 100 µM (inactive); GI50 (DMS-273): > 100 µM (inactive); GI50 (KM-20L2): > 100 µM (inactive); GI50 (M19-MEL): > 100 µM (inactive) |
| CCOC(=O)/C(C#N)=C/c1[nH]c(C)c(C)c1C | – | – | GI50 (DLD-1): > 100 µM (inactive); GI50 (DMS-114): > 100 µM (inactive); GI50 (DMS-273): > 100 µM (inactive); GI50 (KM-20L2): > 100 µM (inactive); GI50 (M19-MEL): > 100 µM (inactive); GI50 (XF498): > 100 µM (inactive) |
| CN(C)C1(N(C)C)Oc2c(c(=O)n(C)c(=O)n2C)C(c2ccccc2Br)C1(F)F (stereo not given) | > 100 µM (inactive) | > 100 µM (inactive) | – |
| Cn1c(=O)c2nc(CCCCc3nc4ccccc4[nH]3)[nH]c2n(C)c1=O | > 100 µM (inactive) | > 100 µM (inactive) | – |
| CC(C)OC(=O)c1ccc(CCc2cc(O)c(Br)cc2O)cc1 | 16.4 µM (inactive) | 11.7 µM (inactive) | – |
| COc1cc(/C=[N+](\[O-])c2ccccc2Cl)ccc1OC(=S)S | 26.9 µM (inactive) | 27.6 µM (inactive) | – |
| CCOC(=O)c1cc(C#N)[nH]c1-c1ccsc1 | 34.8 µM (inactive) | 14.3 µM (inactive) | – |
| C[C@H]1[C@H](C)CC[C@]2(C)CC[C@]3(C)C(=C[C@@H](O)[C@@H]4[C@@]5(C)[C@H](O)[C@@H](O)[C@H](O)C(C)(C)[C@@H]5CC[C@]43C)[C@H]12 | > 100 µM (inactive) | > 100 µM (inactive) | – |
| COc1ccc2c3c(c(C(=O)O)oc13)C(CCC(=O)O)CC2 (stereo not given) | – | – | GI50 (DLD-1): > 100 µM (inactive); GI50 (DMS-114): > 100 µM (inactive); GI50 (DMS-273): > 100 µM (inactive); GI50 (KM-20L2): > 100 µM (inactive); GI50 (XF498): > 100 µM (inactive) |
| CCC[C@H](C)[C@H]1NC(=O)[C@@H](NC(=O)[C@@H](CC(C)C)N(C)C(=O)C2CCCN2C(=O)[C@H](C)O)[C@@H](C)OC(=O)[C@H](CC(C)C)N(C)C(=O)[C@@H]2CCCN2C(=O)[C@H](CC(C)C)NC(=O)[C@@H](C)C(=O)[C@H](C(C)C)OC(=O)C[C@@H]1O (stereo not given in full) | < 0.0025 µM (active) | < 0.0025 µM (active) | – |
| NC(Cc1c[nH]c2ccc([N+](=O)[O-])cc12)C(=O)O (stereo not given) | > 100 µM (inactive) | > 100 µM (inactive) | – |
| COc1ccc(NC(=O)CC(=O)NN2C(=O)/C(=C/c3ccc(N(CCC#N)CCC#N)cc3C)N=C2/C=C\c2ccccc2)cc1 | – | – | GI50 (DLD-1): > 100 µM (inactive); GI50 (KM-20L2): > 100 µM (inactive); GI50 (M19-MEL): > 100 µM (inactive) |
| Cc1cc(C)nc(NC(P(=O)(O)O)P(=O)(O)O)n1 | > 100 µM (inactive) | > 100 µM (inactive) | – |
| CC1=NN(c2cccc(Cl)c2)C2(SCC(=O)N2c2nc3ccccc3s2)/C1=C\c1ccc(Cl)cc1 (stereo not given) | – | 22.2 µM (inactive) | – |
| Cc1cnc2ccc(C)c([N+](=O)[O-])c2c1NCCCN(C)C | – | – | GI50 (DMS-114): 86.5 µM (inactive); GI50 (DMS-273): > 100 µM (inactive); GI50 (KM-20L2): 91.6 µM (inactive); GI50 (M19-MEL): > 100 µM (inactive); GI50 (XF498): > 100 µM (inactive) |
| Nc1cc(F)ccc1CC(=O)O | 79.3 µM (inactive) | > 100 µM (inactive) | – |
| CC(C)C12Cc3c(ccc4ccccc34)OC1(C)Oc1ccc3ccccc3c1C2 (stereo not given) | – | – | GI50 (DLD-1): > 100 µM (inactive); GI50 (DMS-114): 25.6 µM (inactive); GI50 (DMS-273): > 100 µM (inactive); GI50 (KM-20L2): > 100 µM (inactive); GI50 (XF498): > 100 µM (inactive) |
| CC(=O)N1N=C(c2ccc3ccccc3c2O)CC1c1ccc(N(C)C)cc1 (stereo not given) | > 100 µM (inactive) | > 100 µM (inactive) | – |
| Cc1ccc2c(c1C)CC1(Cc3ccc(C)c(C)c3C1=O)C2=O (stereo not given) | > 100 µM (inactive) | 66.8 µM (inactive) | – |
| C=CC[C@H](C)CCC(=O)N1[C@H]2CC3CC[C@@]2(CS1(=O)=O)C3(C)C | 78.7 µM (inactive) | 33.9 µM (inactive) | – |
| Cn1c2c(c3ccccc31)CCN1C(=O)CCC21 (stereo not given) | – | > 10 µM (inactive) | – |
| C=CC1=C(C)c2cc3[nH]c(c4c5nc(cc6[nH]c(cc1n2)c(C)c6CC)C(C)=C5C(=O)[C@@H]4C(=O)OC)[C@@H](CCC(=O)O)[C@@H]3C | 2.31 µM (inactive) | 2.98 µM (inactive) | – |
